Measurements published in PubChem BioAssay AID588807 (The Scripps Research Institute Molecular Screening Center, 2011).
Calls of active or inactive are those of the source. How the calls were made is not given here.

Columns and labels:
Assay in all cases: competitive ABPP of Abhd10 versus anti-targets – biochemical, fluorescence, gel-based, mouse proteome, selectivity assay for PME-1 inhibitor project, late-stage follow-up (AID 588807)
[1] = biological target: Palmitoyl-protein thioesterase ABHD10, mitochondrial (Mus musculus) (UniProt Q6PE15); details: stronger effect = higher value
Palmitoyl-protein thioesterase ABHD10, mitochondrial (Mus musculus), sequence (Q6PE15 whole entry, looked up): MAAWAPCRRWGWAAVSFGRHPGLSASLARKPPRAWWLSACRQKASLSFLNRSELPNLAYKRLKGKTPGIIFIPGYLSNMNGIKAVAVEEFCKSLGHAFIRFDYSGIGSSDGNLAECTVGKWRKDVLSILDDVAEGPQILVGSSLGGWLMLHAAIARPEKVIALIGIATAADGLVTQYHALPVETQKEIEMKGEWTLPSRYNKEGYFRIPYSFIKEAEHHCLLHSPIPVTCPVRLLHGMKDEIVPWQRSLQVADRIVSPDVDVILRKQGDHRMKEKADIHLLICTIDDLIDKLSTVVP

Magl = details: anti-target, at 10 µM, stronger effect = higher value
[2] = biological target: Monoacylglycerol lipase ABHD6 (Mus musculus) (UniProt Q8R2Y0); details: anti-target, stronger effect = higher value
Monoacylglycerol lipase ABHD6 (Mus musculus), sequence (Q8R2Y0 whole entry, looked up): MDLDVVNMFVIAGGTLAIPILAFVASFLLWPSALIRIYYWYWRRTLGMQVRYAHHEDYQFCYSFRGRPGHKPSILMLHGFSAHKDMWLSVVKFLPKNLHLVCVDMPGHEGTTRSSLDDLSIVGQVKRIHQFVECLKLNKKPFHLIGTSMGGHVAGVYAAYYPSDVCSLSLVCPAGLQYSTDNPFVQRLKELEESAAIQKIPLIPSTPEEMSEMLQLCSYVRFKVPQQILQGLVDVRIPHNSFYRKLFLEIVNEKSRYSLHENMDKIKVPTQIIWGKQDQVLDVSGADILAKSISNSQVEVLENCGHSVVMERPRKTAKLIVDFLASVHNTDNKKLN

[3] = biological target: Prolyl endopeptidase (Mus musculus) (UniProt Q9QUR6); details: PREP, anti-target, stronger effect = higher value
Prolyl endopeptidase (Mus musculus), sequence (Q9QUR6 whole entry, looked up): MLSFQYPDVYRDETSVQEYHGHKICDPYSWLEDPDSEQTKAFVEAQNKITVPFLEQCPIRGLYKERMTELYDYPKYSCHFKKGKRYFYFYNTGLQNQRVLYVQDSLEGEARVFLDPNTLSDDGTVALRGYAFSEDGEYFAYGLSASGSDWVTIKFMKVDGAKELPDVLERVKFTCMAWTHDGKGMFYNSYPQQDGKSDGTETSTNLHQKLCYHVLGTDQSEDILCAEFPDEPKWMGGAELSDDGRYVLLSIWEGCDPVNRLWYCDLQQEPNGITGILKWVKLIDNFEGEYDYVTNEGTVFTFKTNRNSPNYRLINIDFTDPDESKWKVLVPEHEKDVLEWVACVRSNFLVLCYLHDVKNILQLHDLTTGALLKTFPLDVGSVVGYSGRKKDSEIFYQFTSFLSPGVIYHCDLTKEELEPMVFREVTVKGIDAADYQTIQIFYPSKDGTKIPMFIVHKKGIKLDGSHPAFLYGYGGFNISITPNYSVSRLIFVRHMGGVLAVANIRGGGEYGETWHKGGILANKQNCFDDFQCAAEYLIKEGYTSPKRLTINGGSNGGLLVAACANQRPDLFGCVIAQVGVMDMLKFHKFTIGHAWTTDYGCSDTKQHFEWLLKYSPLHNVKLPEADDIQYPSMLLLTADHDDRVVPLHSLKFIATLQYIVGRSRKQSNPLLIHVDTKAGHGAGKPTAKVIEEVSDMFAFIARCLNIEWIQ

Kiaa1363 = details: anti-target, stronger effect = higher value
APEH = details: anti-target, stronger effect = higher value

Row | SMILES | inhibition ([1]; at 10 µM) | inhibition ([1]; inhibition, at 1 µM) | inhibition (Magl) | inhibition ([2]; at 10 µM) | inhibition ([3]; at 10 µM) | inhibition (Kiaa1363; at 10 µM) | inhibition (APEH; at 10 µM) | inhibition ([1]; inhibition, at 0.1 µM) | inhibition ([2]; inhibition, at 0.1 µM) | inhibition ([2]; inhibition, at 1 µM) | inhibition ([3]; inhibition, at 1 µM) | inhibition (Kiaa1363; inhibition, at 1 µM) | inhibition (APEH; inhibition, at 1 µM)
1 | CC[C@@]1(c2ccc(OC)cc2)C(=O)N(C(=O)OC(C)C)N1C(=O)OC(C)C | 100% (inactive) | 95% | 10% (inactive) | 10% (inactive) | 30% (inactive) | 40% (inactive) | 70% (inactive) | – | – | – | – | – | –
2 | CC[C@@]1(c2cccc(C)c2)C(=O)N(C(=O)OCC(Cl)(Cl)Cl)N1C(=O)OCC(Cl)(Cl)Cl | 20% (inactive) | – | 0% (inactive) | 0% (inactive) | 10% (inactive) | 0% (inactive) | 0% (inactive) | – | – | – | – | – | –
3 | CC[C@@]1(c2cccc(Cl)c2)C(=O)N(C(=O)OC(C)C)N1C(=O)OC(C)C | 100% (inactive) | 100% | 45% (inactive) | 70% (inactive) | 95% (inactive) | 75% (inactive) | 65% (inactive) | 40% | 15% | 20% | 50% | 25% | 30%
4 | CC[C@@]1(c2cccc(F)c2)C(=O)N(C(=O)OC)N1C(=O)OC | 95% | 95% | 25% (inactive) | 25% (inactive) | 70% (inactive) | 0% (inactive) | 0% (inactive) | 60% | – | – | 15% | – | –

Now from value to molecule:

Row | inhibition ([1]; at 10 µM) | inhibition ([1]; inhibition, at 1 µM) | inhibition (Magl) | inhibition ([2]; at 10 µM) | inhibition ([3]; at 10 µM) | inhibition (Kiaa1363; at 10 µM) | inhibition (APEH; at 10 µM) | inhibition ([1]; inhibition, at 0.1 µM) | inhibition ([2]; inhibition, at 0.1 µM) | inhibition ([2]; inhibition, at 1 µM) | inhibition ([3]; inhibition, at 1 µM) | inhibition (Kiaa1363; inhibition, at 1 µM) | inhibition (APEH; inhibition, at 1 µM) | SMILES
5 | 90% (inactive) | 85% | 50% (inactive) | 75% (inactive) | 65% (inactive) | 20% (inactive) | 20% (inactive) | 35% | – | – | 10% | – | – | C=CCOC(=O)N1C(=O)[C@@](CC)(c2cccc(C)c2)N1C(=O)OCC=C
6 | 90% (inactive) | 70% | 0% (inactive) | 35% (inactive) | 25% (inactive) | 10% (inactive) | 40% (inactive) | 10% | – | 10% | – | – | – | C=CCOC(=O)N1C(=O)[C@@](CC)(c2ccccc2)N1C(=O)OC
7 | 100% | 95% | 10% (inactive) | 0% (inactive) | 40% (inactive) | 0% (inactive) | 25% (inactive) | 55% | – | – | – | – | – | Cc1cccc([C@]2(C)C(=O)N(C(=O)OC(C)C)N2C(=O)OC(C)C)c1
